The assay deals with Mycobacterium tuberculosis Erdman. The assay can be described thus: Biofilm inhibition of Mycobacterium tuberculosis (ocular inspection). In kind it is cell-based. The following applies: for inhibition at 10 µM / inhibition at 25 µM / inhibition at 50 µM: biofilm inhibition, average of three or more measurements (100/50/0% scoring); for inhibition at 10 µM: read-out: Average % Inhibition at 10 μM; for inhibition at 25 µM: read-out: Average % Inhibition at 25 μM; for minimal effective concentration: concentration at which full biofilm inhibition took place, replicate determinations in one cell.

In general, inhibition refers to the share of the control response that was lost under treatment. In general, minimal effective concentration refers to the smallest amount tested that counted as effective. `O=C(O)[C@@H]1CSc2c(C3CC3)c(Cc3ccc(F)c4ccccc34)cc(=O)n21` [Example 3, (3R)-7-Cyclopropyl-6-[(4-fluoro-1-naphthyl)methyl]-4-oxo-1-thia-3a-aza-3-indancarboxylic acid]: the inhibition at 10 µM stood at 100%, the inhibition at 25 µM came to 100%, 50 µM produced 100% inhibition and the minimal effective concentration turned out to be 50 µM.

`Cc1cccc(-c2sc3c(C4CC4)c(Cc4cccc5ccccc45)cc(=O)n3c2C(=O)O)c1` [Example 14, 5-Cyclopropyl-4-[(1-naphthyl)methyl]-2-oxo-8-(m-tolyl)-7-thia-1-azabicyclo[4.3.0]nona-3,5,8-triene-9-carboxylic acid]: the inhibition at 10 µM turned out to be 0%, the inhibition at 25 µM turned out to be 88% and 50 µM produced 100% inhibition.

Turning to `O=C(O)C1CSc2c(C3CC3)c(Cc3cccc(C(F)(F)F)c3)cc(=O)n21` (stereo not shown) [Example 36, 7-Cyclopropyl-4-oxo-6-{[m-(trifluoromethyl)phenyl]methyl}-1-thia-3a-aza-3-indancarboxylic acid], the inhibition at 10 µM amounted to 100%, the inhibition at 25 µM is 100% and the inhibition at 50 µM was 100%.

Take `O=C(O)[C@@H]1CSc2c(C3CC3)c(Cc3cccc4ccccc34)c(CO)c(=O)n21` [Example 32, (3R)-7-Cyclopropyl-5-(hydroxymethyl)-6-[(1-naphthyl)methyl]-4-oxo-1-thia-3a-aza-3-indancarboxylic acid]: the minimal effective concentration was 50 µM.

`O=c1cc(Cc2cccc3ccccc23)c(C2CC2)c2n1CCS2` [Example 31, 7-Cyclopropyl-6-[(1-naphthyl)methyl]-1-thia-3a-aza-4-indanone] showed an inhibition at 50 µM of 100%.

With `COc1ccc(Cc2cc(=O)n3c(c2C2CC2)SCC3C(=O)O)c2ccccc12` (stereo not shown) [Example 39, 7-Cyclopropyl-6-[(4-methoxy-1-naphthyl)methyl]-4-oxo-1-thia-3a-aza-3-indancarboxylic acid], the inhibition at 10 µM was 50%, the inhibition at 25 µM was 100% and the inhibition at 50 µM is 100%.

As for `Cc1ccc(Cc2cc(=O)n3c(c2C2CC2)SC[C@H]3C(=O)O)c2ccccc12` [Example 4, (3R)-7-Cyclopropyl-6-[(4-methyl-1-naphthyl)methyl]-4-oxo-1-thia-3a-aza-3-indancarboxylic acid], the inhibition at 10 µM was 100%, the inhibition at 25 µM worked out at 100%, 50 µM produced 100% inhibition and the minimal effective concentration came to 25 µM.

Turning to `Cc1cccc(Cc2cc(=O)n3c(c2C2CC2)SC[C@H]3C(=O)O)c1` [Example 27, (3R)-7-Cyclopropyl-4-oxo-6-[(m-tolyl)methyl]-1-thia-3a-aza-3-indancarboxylic acid], the inhibition at 10 µM was found to be 75%, the inhibition at 25 µM worked out at 88%, at 50 µM the inhibition was 100% and the minimal effective concentration was 25 µM.

Consider `Cc1cccc(NCc2cc(=O)n3c(c2C2CC2)SC[C@H]3C(=O)O)c1C` [Example 43, (3R)-7-Cyclopropyl-4-oxo-6-[(2,3-xylidino)methyl]-1-thia-3a-aza-3-indancarboxylic acid], for which the inhibition at 25 µM stood at 50% and the inhibition at 50 µM came to 100%.

Regarding `O=C(NS(=O)(=O)c1ccccc1)[C@@H]1CSc2c(C3CC3)c(Cc3cccc4ccccc34)cc(=O)n21` [Example 22, {(3R)-7-Cyclopropyl-6-[(1-naphthyl)methyl]-4-oxo-1-thia-3a-aza-3-indanyl}(phenylsulfonylamino)formaldehyde], the inhibition at 25 µM is 38% and at 50 µM the inhibition was 25%.

For `O=c1cc(Cc2cccc3ccccc23)c(C2CC2)c2n1[C@H](c1nnn[nH]1)CS2` [Example 12, (3R)-7-Cyclopropyl-6-[(1-naphthyl)methyl]-3-(1H-1,2,3,4-tetrazol-5-yl)-1-thia-3a-aza-4-indanone], the inhibition at 10 µM turned out to be 12%, the inhibition at 25 µM is 50% and at 50 µM the inhibition was 87%.

`CCC(CO)NCCNC(CC)COC(=O)C1CSc2c(C3CC3)c(Cc3cccc4ccccc34)cc(=O)n21` (stereo not shown) [Example 37, 2-{2-[1-(Hydroxymethyl)propylamino]ethylamino}butyl 7-cyclopropyl-6-[(1-naphthyl)methyl]-4-oxo-1-thia-3a-aza-3-indancarboxylate]: the inhibition at 10 µM was 100%, the inhibition at 25 µM was 100% and the inhibition at 50 µM stood at 100%.

Consider `O=C(O)[C@H]1CSc2c(C3CC3)c(Cc3cccc4ccccc34)cc(=O)n21` [Example 5, (3S)-7-Cyclopropyl-6-[(1-naphthyl)methyl]-4-oxo-1-thia-3a-aza-3-indancarboxylic acid], for which the inhibition at 10 µM worked out at 100%, the inhibition at 25 µM came to 100%, testing at 50 µM gave an inhibition of 100% and the minimal effective concentration came to 5 µM.

With `O=C(O)[C@@H]1CSc2c(C3CC3)c(COc3cccc4ccccc34)cc(=O)n21` [Example 7, (3R)-7-Cyclopropyl-6-[(1-naphthyloxy)methyl]-4-oxo-1-thia-3a-aza-3-indancarboxylic acid], the inhibition at 10 µM turned out to be 50%, the inhibition at 25 µM turned out to be 100%, the inhibition at 50 µM is 100% and the minimal effective concentration was 25 µM.

On to `O=C(O)C1CS(=O)(=O)c2c(C3CC3)c(Cc3cccc4ccccc34)cc(=O)n21` (stereo not shown) [Example 42, 7-Cyclopropyl-6-[(1-naphthyl)methyl]-1,1-dioxo-4-oxo-1-thia-3a-aza-3-indancarboxylic acid], for which the inhibition at 10 µM was determined as 50%, the inhibition at 25 µM amounted to 12% and at 50 µM the inhibition was 12%.

In turn, `COc1ccc2ccccc2c1Cc1cc(=O)n2c(c1C1CC1)SC[C@H]2C(=O)O` [Example 49, (3R)-7-Cyclopropyl-6-[(2-methoxy-1-naphthyl)methyl]-4-oxo-1-thia-3a-aza-3-indancarboxylic acid] came in with a minimal effective concentration of 25 µM.

In the case of `CC1(C)Sc2c(C3CC3)c(Cc3cccc4ccccc34)cc(=O)n2[C@@H]1C(=O)O` [Example 46, (3R)-7-Cyclopropyl-2,2-dimethyl-6-[(1-naphthyl)methyl]-4-oxo-1-thia-3a-aza-3-indancarboxylic acid], the inhibition at 25 µM stood at 62% and testing at 50 µM gave an inhibition of 38%.

`N[C@@H]1CSc2c(C3CC3)c(Cc3cccc4ccccc34)cc(=O)n21` [Example 33, (3S)-3-Amino-7-cyclopropyl-6-[(1-naphthyl)methyl]-1-thia-3a-aza-4-indanone] displayed a minimal effective concentration of 25 µM.

Take `O=C(O)[C@@H]1CSc2c(C3CC3)c(Cc3ccc(Br)c4ccccc34)cc(=O)n21` [Example 30, (3R)-6-[(4-Bromo-1-naphthyl)methyl]-7-cyclopropyl-4-oxo-1-thia-3a-aza-3-indancarboxylic acid]: the minimal effective concentration stood at 50 µM.

With `O=C(NNC(=O)C1CSc2c(C3CC3)c(Cc3cccc4ccccc34)cc(=O)n21)c1ccncc1` (stereo not shown) [Example 38, {7-Cyclopropyl-6-[(1-naphthyl)methyl]-4-oxo-1-thia-3a-aza-3-indanyl}(2-isonicotinoylhydrazino)formaldehyde], the inhibition at 10 µM worked out at 100%, the inhibition at 25 µM was found to be 100%, 50 µM produced 100% inhibition and the minimal effective concentration was found to be 25 µM.

As to `Cn1cc(-c2c(COc3cccc4ccccc34)cc(=O)n3c2SCC3C(=O)O)c2ccccc21` (stereo not shown) [Example 29, 7-(1-Methyl-1H-indol-3-yl)-6-[(1-naphthyloxy)methyl]-4-oxo-1-thia-3a-aza-3-indancarboxylic acid], the minimal effective concentration was determined as 50 µM.

For `Cc1cccc(CCc2cc(=O)n3c(c2C(C)C)SC[C@H]3C(=O)O)c1` [Example 28, (3R)-7-Isopropyl-4-oxo-6-[2-(m-tolyl)ethyl]-1-thia-3a-aza-3-indancarboxylic acid], the minimal effective concentration was determined as 50 µM.

On to `Cc1ccc(F)c(Cc2cc(=O)n3c(c2C2CC2)SC[C@H]3C(=O)O)c1` [Example 8, (3R)-7-Cyclopropyl-6-[(2-fluoro-5-methyl-phenyl)methyl]-4-oxo-1-thia-3a-aza-3-indancarboxylic acid], for which the inhibition at 10 µM was 75%, the inhibition at 25 µM was determined as 63%, at 50 µM the inhibition was 75% and the minimal effective concentration amounted to 25 µM.

In turn, `CS(=O)(=O)NC(=O)[C@@H]1CSc2c(C3CC3)c(Cc3cccc4ccccc34)cc(=O)n21` [Example 26, {(3R)-7-Cyclopropyl-6-[(1-naphthyl)methyl]-4-oxo-1-thia-3a-aza-3-indanyl}(methylsulfonylamino)formaldehyde] yielded a minimal effective concentration of 50 µM.

For `CC(C)COc1c(Cc2cccc3ccccc23)cc(=O)n2c1SC[C@H]2C(=O)O` [Example 48, (3R)-7-Isobutoxy-6-[(1-naphthyl)methyl]-4-oxo-1-thia-3a-aza-3-indancarboxylic acid], the inhibition at 50 µM turned out to be 50%.

On to `NC(=O)[C@@H]1CSc2c(C3CC3)c(Cc3cccc4ccccc34)cc(=O)n21` [Example 21, (3R)-7-Cyclopropyl-6-[(1-naphthyl)methyl]-4-oxo-1-thia-3a-aza-3-indancarboxamide], for which the inhibition at 10 µM is 12%, the inhibition at 25 µM was 100% and at 50 µM the inhibition was 100%.

`CCOc1c(Cc2cccc3ccccc23)cc(=O)n2c1SC[C@H]2C(=O)O` [Example 45, (3R)-7-Ethoxy-6-[(1-naphthyl)methyl]-4-oxo-1-thia-3a-aza-3-indancarboxylic acid]: the inhibition at 25 µM was 50% and the inhibition at 50 µM came out at 25%.

With `O=C(O)[C@@H]1CSc2c(C3CC3)c(Cc3ccc4ccccc4c3)cc(=O)n21` [Example 15, (3R)-7-Cyclopropyl-6-[(2-naphthyl)methyl]-4-oxo-1-thia-3a-aza-3-indancarboxylic acid], the inhibition at 10 µM amounted to 87%, the inhibition at 25 µM was determined as 100%, at 50 µM the inhibition was 100% and the minimal effective concentration amounted to 50 µM.
